# From article PMC6138628, “Enhanced uptake of gH625 by blood brain barrier compared to liver in vivo: characterization of the mechanism by an in vitro model and implications for delivery” (Scientific Reports, 2018)
# Residues, ends and D or L forms follow the SMILES beside them.
# What was measured:
# [1] = Tryptophan quenching by acrylamide in buffer; type: physicochemical; details: no LUVs, peptide 4 µM, acrylamide up to 0.2 M, λex 295 nm, λem 340 nm
# Method: (§1) A solution containing 4 µM of gH625 in the absence or presence of LUVs at a peptide/lipid molar ratio of 1/200, was titrated with the water-soluble quencher acrylamide (4 M mother solution). The maximal concentration of acrylamide in the samples is 0.2 M. Fluorescence was measured with λex 295 nm and λem 340 nm[43]. The data were analysed with the Stern-Volmer equation[43], F0/F = 1 + Ksv [Q], where F0 and F represent the fluorescence intensities in the absence and the presence of the quencher (Q), respectively. The Ksv is the Stern-Volmer quenching constant, and is correlated to the accessibility of the tryptophan residue to acrylamide. […] Ksv is thus determined by the amount of non-lipid-associated free peptide as well as the peptide fraction located on the surface of the bilayer.
# (§2) The observed changes in the tryptophan emission upon binding to lipid vesicles indicate gH625 insertion into the hydrophobic region of the bilayers. We determined the accessibility of the tryptophan residues of membrane bound peptides towards acrylamide, a neutral, water-soluble quencher, which is unable to penetrate into the hydrophobic core of the lipid bilayer. In fact, tryptophan residues more deeply buried inside the membrane are less strongly quenched.
# [2] = ANTS/DPX leakage assay; details: 0.1 mM lipid, 5 mM Hepes, 100 mM NaCl, pH 7.4, 37 °C, data not shown
# Method: The ANTS/DPX experiment was used to evaluate leakage of encapsulated dyes induced by the peptide. The peptide in 5 mM Hepes and 100 mM NaCl at pH 7.4 was added to the stirred vesicle suspension (0.1 mM lipid) containing ANTS and DPX at 37 °C. Details of this assay have been previously reported.
# [3] = Tryptophan quenching by acrylamide; type: physicochemical; details: peptide 4 µM, peptide/lipid 1/200, acrylamide up to 0.2 M, λex 295 nm, λem 340 nm
# Method: as §1, §2
# [4] = Membrane fluidity, Laurdan generalized polarization (GP); type: physicochemical; details: P/L molar ratio 0.5, after 10 min, 37 °C, 5 mM HEPES, 100 mM NaCl, pH 7.4
# Method: The samples were vortexed and lyophilized overnight.
# LUVs containing Laurdan were prepared to determine membrane fluidity. In order to insert Laurdan into the bilayer, it was added to lipid films before hydration. The peptide gH625 was added to LUVs at a P/L molar ratio of 0.5 and after 10 min the fluorescence spectra were recorded using a 1 cm path length quartz cell, thermostated at 25 °C or 37 °C. Spectra were corrected for the baseline signal. Laurdan emission spectra were recorded from 400 to 550 nm with λex 365 nm in the absence or presence of gH625 in 5 mM HEPES, 100 mM NaCl buffer (pH 7.4). Laurdan emission can shift from 440, in the ordered phase, to 490 in the disordered phase. The excitation generalized polarization (GP) was calculated as GP = (I440 − I490)/(I440 + I490) where I440 and I490 are the fluorescence intensities at the maximum emission wavelength in the ordered (λem 440 nm) and disordered (λem 490 nm) phases.
# LUVs fluidity before and after the addition of gH625 were obtained using the fluorescent probe Laurdan[47],[48]. […] The Generalized Polarization (GP) is a parameter commonly used to quantify the change in the lipid fluidity. […] The GP parameter allowed quantifying the effect of the peptide (Table 1). […]
# [5] = Circular dichroism spectroscopy in aqueous solution; type: physicochemical; details: room temperature
# Method: CD spectra were recorded at room temperature on a Jasco J-715 spectropolarimeter in a 0.1 cm quartz cell. The spectra are an average of 3 consecutive scans from 260 to 190 nm, recorded with a band width of 3 nm, a time constant of 16 s, and a scan rate of 10 nm/min. Spectra were recorded and corrected for the blank. Mean residue ellipticities (MRE) were calculated as MRE = Obsd/lcn (Obsd is the ellipticity measured in millidegrees, l is the path length of the cell in cm, c is the peptide concentration in mol/l, and n is the number of amino acid residues in the peptide). A solution of 8 µM of peptide with SUVs, was prepared as previously described. […] The percentage of helix was calculated from measurements of their mean residue ellipticity at 222 nm[44]. We used [ϑ]222 values of 0 and −40.000(1–2.5/n) deg cm^2 dmol^−1 per amino acid residue for 0% and 100% helicity; n is the number of amino acid residues. The ratio of the ellipticities at 222 and 208 nm were used to discriminate between monomeric and oligomeric states of helices. The experiment was performed before and after centrifugation to remove eventual precipitated peptides from solution.
smiles,measurement,setting,value
CC[C@H](C)[C@H](NC(=O)[C@H](CC(C)C)NC(=O)[C@H](C)NC(=O)[C@H](CC(N)=O)NC(=O)[C@H](Cc1ccc(O)cc1)NC(=O)[C@H](Cc1c[nH]cn1)NC(=O)[C@H](C)NC(=O)[C@H](Cc1c[nH]c2ccccc12)NC(=O)[C@H](CCCNC(=N)N)NC(=O)[C@@H](NC(=O)[C@H](CC(C)C)NC(=O)[C@@H](NC(=O)[C@H](CO)NC(=O)[C@H](C)NC(=O)[C@H](CC(C)C)NC(=O)CNC(=O)[C@@H](N)Cc1c[nH]cn1)[C@@H](C)O)[C@@H](C)O)C(=O)N[C@@H](CCCNC(=N)N)C(=O)N[C@@H](C)C(=O)N[C@@H](Cc1ccccc1)C(N)=O [gH625] (H-HGLASTLTRWAHYNALIRAF-NH2),Stern-Volmer quenching constant (Ksv),[1],10.21 ± 0.15 M⁻¹
same,Leakage of encapsulated dyes (ANTS/DPX),[2]; BBB mimicking LUVs,did not present any leakage
same,Leakage of encapsulated dyes (ANTS/DPX),[2]; liver mimicking LUVs,did not present any leakage
same,Stern-Volmer quenching constant (Ksv),[3]; BBB mimicking LUVs,2.05 ± 0.08 M⁻¹
same,Stern-Volmer quenching constant (Ksv),[3]; liver mimicking LUVs,3.04 ± 0.06 M⁻¹
same,"Generalized polarization (GP) value, +gH625","[4]; Laurdan in LUVs DSPC/POPE/PI/PS/lysoPC/SM/DOPG (37/21/7/9/3/18/5), no peptide 37 °C: 0.40",0.49
same,"Generalized polarization (GP) value, +gH625","[4]; Laurdan in LUVs PI/DOPE/DPPC/PS/Chol/SM (4/23/30/8/20/15), no peptide 37 °C: 0.19",0.15
same,Secondary structure by CD,[5],mainly random coil structure
